According to US10449245B2 (priority 2014, dated 2019):
Where “and” joins values, the source holds several entries; their conditions need not be identical. Identical values can stand only once.

Tests used:
[1] = tested on: Histone H3 acetylation in lymphocytes; assay: Lymphocyte histone H3 acetylation by flow cytometry, REDUC clinical trial Part A; type: in vivo, human; parameters: key to Histone Acetylation, Mean: MFI, background (isotype control) MFI subtracted; settings: for Histone Acetylation (anti-acetyl histone H3 MFI in lymphocytes): individual subjects 1101, 1102, 1103, 1105, 1106, 1107 = c1-c6; for Histone Acetylation (anti-acetyl histone H3 MFI in lymphocytes) / Histone Acetylation, Mean: romidepsin 5 mg/m^2 i.v. days 0, 7, 14; for Histone Acetylation, Mean: mean of subjects
Experimental: (§1) Part A of the clinical study contained three phases. First, a pre-treatment phase of 2-4 weeks (visit 1-visit 2a) to confirm the stability of the latent HIV-1 reservoir and determine baseline HIV-1 T lymphocyte specific immunity. Second, a viral reactivation phase of 3 weeks (visit 2 to visit 7) consisting of one cycle of romidepsin infusions at a dosing of 5 mg/m^2 administered intravenously over a 4 hour period. De-escalation down to 2.5 mg/m^2 was planned in case of dose-limiting toxicity was observed. Romidepsin was infused on days 0, 7, and 14. Third, a post-activation phase of ˜9 weeks (visit 8 to visit 11) to assess the effect of romidepsin on the size of latent HIV-1I reservoir.
Histone H3 acetylation was measured in lymphocytes using flow cytometry with intracellular cytokine staining on fresh isolated PBMCs. Freshly isolated PBMC's were fixated, permeabilised and stained with acetylation-specific antibodies, providing the possibility to evaluate epigenetic modifications on Histones (Rigby L, Muscat A, Ashley D, Algar E. Epigenetics 2012; 7(8):875-882). Briefly, PBMCs (1×10^6) were resuspended in 3 ml ice-cold PBS/1% FBS and centrifuged, then vortexed to dissolve pellet and fixative added, 100 μl 2% PFA (ice-cold), vortexed briefly and incubated on ice for 15 min. Cells were then washed in 4 ml PBS, resuspend in 200 μl PBS and stored at 4° C. until staining. Samples were washed with 3 ml FACS buffer and vortexed to dissolve cell pellet prior to adding 100 μl 0.2% Triton X-100, vortex briefly and incubate for 10 min. at room temperature (RT). Samples were then washed with FACS buffer, 600 μl Block (PBS/10% FBS) was added, sample vortexed to resuspend cell pellet and incubate for 20 min at RT. After washing with 3 ml FACS buffer 5 μl primary antibody Anti-acetyl histone H3 (rabbit) at 200 μg/ml (Merck Millipore) or isotype control at 200 μg/ml (normal rabbit serum, LifeTechnologie) was added, and samples vortexed to resuspend cell pellet, and incubated for 1 hour at RT. Following this samples […]), vortexed to resuspend cell pellet and incubated for 1 hour in the dark (RT). Finall samples were washed with FACS buffer and resuspended in 80 μl PBS and analyzed by FACS (50 000 events, anti-acetyl histone H3 Median Fluorescence Intensity, MFI, calculated by subtracting background MFI from isotype control).

[2] = tested on: HIV-1; assay: Plasma HIV RNA quantitative viral load (Cobas TaqMan HIV-1 Test v2.0), REDUC Part A; type: in vivo, human; settings: for HIV VL: individual subjects 1101, 1102, 1103, 1105, 1106, 1107 = c1-c6, romidepsin 5 mg/m^2 i.v. days 0, 7, 14
Experimental: as §1, with “First, a pre-treatment phase of 2-4 weeks (visit 1-visit 2a) to confirm the stability of the latent HIV-1 reservoir and determine baseline HIV-1 T lymphocyte specific immunity.” left out
Plasma HIV RNA, quantitative viral load, was measured by Cobas® TaqMan® HIV-1 Test, v2.0 (Roche) according the manufacturer's instruction (routine clinical assay). The lower limit of quantification for this assay is 20 copies HIV-1 RNA/mL, but it provides a qualitative assessment below this.

[3] = tested on: latently infected cell lines and primary T cells; settings: cited from earlier work
[4] = visit 2A (day 0, pre-treatment)

What does the source list for `C/C=C1\NC(=O)[C@H]2CSSCC/C=C/[C@H](CC(=O)N[C@H](C(C)C)C(=O)N2)OC(=O)[C@H](C(C)C)NC1=O` [romidepsin, (1S,4S,7Z,10S,16E,21R)-7-ethylidene-4,21-bis(1-methylethyl)-2-oxa-12,13-dithia-5,8,20,23-tetraazabicyclo[8.7.6]tricos-16-ene-3,6,9,19,22-pentone]?
Lymphocyte histone H3 acetylation, maximum fold range relative to baseline ([1]; following each romidepsin administration, 5 mg/m^2): 3.7-7.7 fold; Histone Acetylation (anti-acetyl histone H3 MFI in lymphocytes) [1, 4]: 1181 and 1258 and 562 and 1020 and 309 and 372; Histone Acetylation, Mean [1, 4]: 783.6667; Histone Acetylation (anti-acetyl histone H3 MFI in lymphocytes) ([1]; visit 2B (day 0 + 4 h)): 3493 and 1534 and 3481 and 2473 and 2360 and 2463; Histone Acetylation, Mean ([1]; visit 2B (day 0 + 4 h)): 2634; Histone Acetylation (anti-acetyl histone H3 MFI in lymphocytes) ([1]; visit 3 (day 1)): 3465 and 2197 and 2451 and 2216 and 2475 and 1757; Histone Acetylation, Mean ([1]; visit 3 (day 1)): 2426.833; Histone Acetylation (anti-acetyl histone H3 MFI in lymphocytes) ([1]; visit 4 (day 3)): 3102 and 2964 and 3201 and 4130 and 3302 and 2767; Histone Acetylation, Mean ([1]; visit 4 (day 3)): 3244.333; Histone Acetylation (anti-acetyl histone H3 MFI in lymphocytes) ([1]; visit 5A (day 7)): 2065 and 2740 and 1284 and 2042 and 2863 and 596; Histone Acetylation, Mean ([1]; visit 5A (day 7)): 1931.667; Histone Acetylation (anti-acetyl histone H3 MFI in lymphocytes) ([1]; visit 5B (day 7 + 4 h)): 5363 and 4597 and 4059 and 3198 and 4239 and 2214; Histone Acetylation, Mean ([1]; visit 5B (day 7 + 4 h)): 3945; Histone Acetylation (anti-acetyl histone H3 MFI in lymphocytes) ([1]; visit 6 (day 10)): 2788 and 4124 and 3402 and 3859 and 3748 and 3280; Histone Acetylation, Mean ([1]; visit 6 (day 10)): 3533.5; Histone Acetylation (anti-acetyl histone H3 MFI in lymphocytes) ([1]; visit 7A (day 14)): 2486 and 3236 and 1789 and 1794 and 1438 and 1211; Histone Acetylation, Mean ([1]; visit 7A (day 14)): 1992.333; Histone Acetylation (anti-acetyl histone H3 MFI in lymphocytes) ([1]; visit 7B (day 14 + 4 h)): 7228 and 3580 and 3317 and 4101 and 5467 and 3444; Histone Acetylation, Mean ([1]; visit 7B (day 14 + 4 h)): 4522.833; Histone Acetylation (anti-acetyl histone H3 MFI in lymphocytes) ([1]; visit 8 (day 17)): 3875 and 4502 and 3147 and 3675 and 3572; Histone Acetylation, Mean ([1]; visit 8 (day 17)): 3754.2; Histone Acetylation (anti-acetyl histone H3 MFI in lymphocytes) ([1]; visit 9 (day 21)): 741 and 2416 and 1607 and 1923 and 1179 and 2467; Histone Acetylation, Mean ([1]; visit 9 (day 21)): 1722.167; Histone Acetylation (anti-acetyl histone H3 MFI in lymphocytes) ([1]; visit 10 (day 56)): 1733 and 3579 and 2622 and 3035 and 1592 and 1865; Histone Acetylation, Mean ([1]; visit 10 (day 56)): 2404.333; Histone Acetylation (anti-acetyl histone H3 MFI in lymphocytes) ([1]; visit 11 (day 84)): 1243 and 1823 and 1292 and 1287 and 1059 and 970; Histone Acetylation, Mean ([1]; visit 11 (day 84)): 1279; extracellular HIV RNA, change ([2]; as a result of romidepsin infusion): significantly increased; plasma HIV-1 RNA ([2]; at baseline): < 20 copies/mL; patients with plasma HIV-1 RNA increased to readily quantifiable levels ([2]; at multiple post-infusion time-points): 5 of 6; plasma HIV-1 RNA ([2]; range following the second infusion, standard clinical assay): 46-103 copies/mL; HIV VL ([2]; visit 1 (day −21, pre-treatment)): LOQ (LOQ = “detectable” not quantifiable HIV RNA<20 c/mL) (3×) and 40 HIV RNA copies/mL plasma and LOD (2×); HIV VL [2, 4]: LOD; HIV VL ([2]; visit 2B (day 0 + 4 h)): LOQ (LOQ = “detectable” not quantifiable HIV RNA<20 c/mL) and LOD (5×); HIV VL ([2]; visit 3 (day 1)): 26 HIV RNA copies/mL plasma and LOD (2×) and LOQ (LOQ = “detectable” not quantifiable HIV RNA<20 c/mL) (2×) and 27 HIV RNA copies/mL plasma; HIV VL ([2]; visit 4 (day 3)): LOQ (LOQ = “detectable” not quantifiable HIV RNA<20 c/mL) and 32 HIV RNA copies/mL plasma and LOD (4×); HIV VL ([2]; visit 5A (day 7)): LOQ (LOQ = “detectable” not quantifiable HIV RNA<20 c/mL) and LOD (5×); HIV VL ([2]; visit 5B (day 7 + 4 h)): 21 HIV RNA copies/mL plasma and LOD (3×) and 54 HIV RNA copies/mL plasma and LOQ (LOQ = “detectable” not quantifiable HIV RNA<20 c/mL); HIV VL ([2]; visit 6 (day 10)): 59 HIV RNA copies/mL plasma and 74 HIV RNA copies/mL plasma and LOQ (LOQ = “detectable” not quantifiable HIV RNA<20 c/mL) and LOD and 46 HIV RNA copies/mL plasma and 103 HIV RNA copies/mL plasma; HIV VL ([2]; visit 7A (day 14)): LOD (5×) and LOQ (LOQ = “detectable” not quantifiable HIV RNA<20 c/mL); HIV VL ([2]; visit 7B (day 14 + 4 h)): LOQ (LOQ = “detectable” not quantifiable HIV RNA<20 c/mL) and LOD (5×); HIV VL ([2]; visit 9 (day 21)): LOQ (LOQ = “detectable” not quantifiable HIV RNA<20 c/mL) (3×) and LOD (3×); HIV VL ([2]; visit 10 (day 56)): LOD (3×) and 42 HIV RNA copies/mL plasma and LOQ (LOQ = “detectable” not quantifiable HIV RNA<20 c/mL) (2×); HIV VL ([2]; visit 11 (day 84)): LOQ (LOQ = “detectable” not quantifiable HIV RNA<20 c/mL) and LOD (4×) and 68 HIV RNA copies/mL plasma; HIV VL ([2]; visit V8 (day 17)): 22 HIV RNA copies/mL plasma and LOD (2×) and LOQ (LOQ = “detectable” not quantifiable HIV RNA<20 c/mL) and 119 HIV RNA copies/mL plasma; activation of HIV-1 expression [3]: potently activates HIV-1 expression
